Reference: patent US9023789B2, “Amylin analogs and pharmaceutical compositions thereof” (Novo Nordisk A/S, priority 2012, dated 2015)
pEC50, pIC50: −log10 of the molar value. Numbered stars: 1 amine (or outer) side, 2 acyl side, 3 side chain; on linkers, the order of the positions; unused ones are H or OH. Bridge positions count the residues as written; N and C are the ends. Side chains are listed from the residue outwards. Peptide text beside a SMILES is read from it. * marks the point of attachment. C20 diacid = O=C(O)CCCCCCCCCCCCCCCCCCC(=O)*; γGlu = O=C(O)[C@H](CCC(=O)[*:2])N[*:1]

Experiments:
[1] = biological target: T1, human amylin receptor (membranes from Amylin 3(a)/CRE-luc cells) (Homo sapiens, UniProt O60896+P30988); assay: ASSAY (V) binding to the human amylin receptor (SPA, 125I-rat amylin); details: for pIC50: Table 4, read-out: hAmylin-R bind IC50;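 for all read-outs here: competition binding of cell membranes (35 ng/µL) mixed with SPA beads in 384-well plates at 40 µL total volume, read by scintillation counting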
T1 construct: expressed in transfected cells
T1 sequence (P30988 25-474): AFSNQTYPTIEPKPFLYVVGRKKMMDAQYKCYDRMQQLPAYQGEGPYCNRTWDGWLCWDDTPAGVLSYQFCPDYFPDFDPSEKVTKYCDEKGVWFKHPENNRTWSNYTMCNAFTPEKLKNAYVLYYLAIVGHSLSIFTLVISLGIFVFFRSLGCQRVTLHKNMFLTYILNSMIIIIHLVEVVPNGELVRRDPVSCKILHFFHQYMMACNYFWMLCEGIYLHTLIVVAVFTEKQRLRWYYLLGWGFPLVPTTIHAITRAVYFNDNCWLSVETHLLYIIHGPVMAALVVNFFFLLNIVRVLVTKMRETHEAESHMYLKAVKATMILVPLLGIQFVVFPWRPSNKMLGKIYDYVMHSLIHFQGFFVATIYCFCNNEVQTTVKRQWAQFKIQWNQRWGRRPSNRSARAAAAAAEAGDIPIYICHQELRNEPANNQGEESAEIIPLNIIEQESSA
T1 sequence (O60896 24-148 partner): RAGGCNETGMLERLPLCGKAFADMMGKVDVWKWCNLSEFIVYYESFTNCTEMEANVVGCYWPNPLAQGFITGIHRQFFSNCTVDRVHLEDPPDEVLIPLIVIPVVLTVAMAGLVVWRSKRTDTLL

rat calcitonin receptor = biological target: T2, rat calcitonin receptor (Rattus norvegicus, UniProt P32214); assay: ASSAY (VIII) binding to the rat calcitonin receptor; details: Table 7, read-out: rCTR bind IC50
T2 construct: expressed in transfected cells; host or cells: BHK tk'ts 13 (transient, FuGENE 6), membranes
T2 sequence (P32214 25-479 isoform P32214-2 limits assumed): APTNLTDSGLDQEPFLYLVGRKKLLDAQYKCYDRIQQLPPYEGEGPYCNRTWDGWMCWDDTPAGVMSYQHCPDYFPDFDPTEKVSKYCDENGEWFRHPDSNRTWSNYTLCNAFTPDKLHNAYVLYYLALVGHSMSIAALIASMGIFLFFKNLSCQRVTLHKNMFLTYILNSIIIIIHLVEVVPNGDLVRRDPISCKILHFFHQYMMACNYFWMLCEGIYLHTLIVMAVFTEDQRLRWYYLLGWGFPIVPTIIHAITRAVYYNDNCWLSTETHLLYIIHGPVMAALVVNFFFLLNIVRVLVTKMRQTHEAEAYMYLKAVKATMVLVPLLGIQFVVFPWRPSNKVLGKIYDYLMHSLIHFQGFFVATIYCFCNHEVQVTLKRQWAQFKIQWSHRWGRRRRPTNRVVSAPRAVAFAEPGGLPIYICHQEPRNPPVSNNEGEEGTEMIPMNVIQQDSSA
Summary of the method: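 BHK tk′ts 13 cells, transient rat calcitonin receptor transfection; DMEM + 10% FBS; harvest ~48 h post-transfection; membrane prep.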

[2] = biological target: T3, human amylin 3(a) receptor (human calcitonin receptor + RAMP-3) in BHK570 cells (Homo sapiens, UniProt O60896+P30988); assay: ASSAY (II)a functional assay, human amylin receptor (CRE luciferase); format: cell-based; details: for pEC50: human amylin receptor functional potency, assay (II), read-out: hAmylin-R funct. EC50
T3 construct: expressed in transfected cells
Summary of the method: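 Readout is luminescence from a cAMP-responsive CRE-luc reporter, developed with LucLite for 30 min at room temperature. Cells were treated for 3 h at 37 °C in 10% FBS/DMEM buffered with 10 mM Hepes (pH 7.4).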

[3] = Table 5, selectivity, hCTR bind IC50 / hAmylin-R bind IC50
[4] = Table 5a, selectivity, hCTR bind IC50 / hAmylin-R bind IC50
[5] = Table 5b, selectivity, hCTR bind IC50 / hAmylin-R bind IC50
[6] = Table 5c, selectivity, hCTR bind IC50 / hAmylin-R bind IC50
[7] = Table 7, human binding selectivity, included for comparison
[8] = Table 7a (preferred compounds), human binding selectivity, included for comparison
[9] = ratio of human calcitonin receptor binding IC50 to human amylin receptor binding IC50
[10] = hCTR funct. EC50 divided by hAmylin-R funct. EC50
[11] = hCTR funct. EC50 over hAmylin-R funct. EC50
[12] = human functional selectivity: hCTR funct. EC50 / hAmylin-R funct. EC50

| Structure (SMILES) | pIC50 [1] | Ratio hCT/hAmylin binding [1, 3] | Ratio hCT/hAmylin binding [1, 4] | Ratio hCT/hAmylin binding [1, 5] | Ratio hCT/hAmylin binding [1, 6] | Ratio hCT/hAmylin binding [1, 7] | Ratio hCT/hAmylin binding [1, 8] | Ratio hCT/hAmylin binding [1, 9] | pIC50 (rat calcitonin receptor) | Ratio hCT/hAmylin funct. [2, 10] | Ratio hCT/hAmylin funct. [2, 11] | pEC50 [2] | Ratio hCT/hAmylin funct. [2, 12] | Ratio hCT/hAmylin funct. ([2]; hCTR funct. EC50 / hAmylin-R funct. EC50) |
| --- | --- | --- | --- | --- | --- | --- | --- | --- | --- | --- | --- | --- | --- | --- |
| CC[C@H](C)[C@H](NC(=O)[C@H](C)NC(=O)CNC(=O)[C@H](Cc1ccccc1)NC(=O)[C@H](CC(N)=O)NC(=O)[C@@H]1CCCN1C(=O)[C@H](CO)NC(=O)[C@H](CO)NC(=O)[C@H](Cc1c[nH]cn1)NC(=O)[C@H](CCCNC(=N)N)NC(=O)[C@H](CC(C)C)NC(=O)[C@H](Cc1ccccc1)NC(=O)[C@H](Cc1c[nH]cn1)NC(=O)[C@H](C)NC(=O)[C@H](CC(C)C)NC(=O)[C@H](CCCNC(=N)N)NC(=O)[C@H](CCC(N)=O)NC(=O)[C@@H](NC(=O)[C@H](C)NC(=O)[C@@H]1CSSC[C@H](NC(=O)[C@@H](N)CCCCNC(=O)CC[C@H](NC(=O)CCCCCCCCCCCCCCCCCCC(=O)O)C(=O)O)C(=O)N[C@@H](CC(N)=O)C(=O)N[C@@H]([C@@H](C)O)C(=O)N[C@@H](C)C(=O)N[C@@H]([C@@H](C)O)C(=O)N1)[C@@H](C)O)C(=O)N1CCC[C@H]1C(=O)N[C@@H](CO)C(=O)N[C@@H](CO)C(=O)N[C@H](C(=O)N[C@@H](CC(N)=O)C(=O)N[C@H](C(=O)NCC(=O)N[C@@H](Cc1c[nH]cn1)C(=O)N[C@@H](CC(N)=O)C(=O)N[C@H](C(=O)N[C@@H](Cc1ccc(O)cc1)C(N)=O)[C@@H](C)O)C(C)C)[C@@H](C)O [Example 81] (H-K([γGlu-C20 diacid])CNTATCATQRLAHFLRHSSPNFGAIPSSTNVGHNTY-NH2; disulfide 2-7; N-terminus assumed) | 9.57 | 87.2 | 87.2 | 87.2 | 87.2 | 87.2 | 87.2 | 87.2 | 7.21 | 13.3 | 13.3 | 9.89 | 13.3 | – |
| CC[C@H](C)[C@H](NC(=O)[C@H](C)NC(=O)CNC(=O)[C@H](Cc1ccccc1)NC(=O)[C@H](CC(N)=O)NC(=O)[C@@H]1CCCN1C(=O)[C@H](CO)NC(=O)[C@H](CO)NC(=O)[C@H](Cc1c[nH]cn1)NC(=O)[C@H](CCCNC(=N)N)NC(=O)[C@H](CC(C)C)NC(=O)[C@H](Cc1ccccc1)NC(=O)[C@H](CCC(=O)O)NC(=O)[C@H](C)NC(=O)[C@H](CC(C)C)NC(=O)[C@H](CCCNC(=N)N)NC(=O)[C@H](CCC(N)=O)NC(=O)[C@@H](NC(=O)[C@H](C)NC(=O)[C@@H]1CSSC[C@H](NC(=O)[C@@H](N)CCCCNC(=O)CC[C@H](NC(=O)CC[C@H](NC(=O)CCCCCCCCCCCCCCCCCCC(=O)O)C(=O)O)C(=O)O)C(=O)N[C@@H](CC(N)=O)C(=O)N[C@@H]([C@@H](C)O)C(=O)N[C@@H](C)C(=O)N[C@@H]([C@@H](C)O)C(=O)N1)[C@@H](C)O)C(=O)N1CCC[C@H]1C(=O)N[C@@H](CO)C(=O)N[C@@H](CO)C(=O)N[C@H](C(=O)N[C@@H](CC(N)=O)C(=O)N[C@H](C(=O)NCC(=O)N[C@@H](CCCNC(=N)N)C(=O)N[C@@H](CCC(=O)O)C(=O)N[C@H](C(=O)N[C@@H](Cc1ccc(O)cc1)C(N)=O)[C@@H](C)O)C(C)C)[C@@H](C)O [Example 105] (H-K([γGlu-γGlu-C20 diacid])CNTATCATQRLAEFLRHSSPNFGAIPSSTNVGRETY-NH2; disulfide 2-7; N-terminus assumed) | 9.02 | 14.7 | 14.7 | – | – | 14.7 | 14.7 | 14.7 | 6.34 | 10.6 | 10.6 | 9.15 | 10.6 | – |
| CC[C@H](C)[C@H](NC(=O)[C@H](C)NC(=O)CNC(=O)[C@H](Cc1ccccc1)NC(=O)[C@H](CC(N)=O)NC(=O)[C@@H]1CCCN1C(=O)[C@H](CO)NC(=O)[C@H](CO)NC(=O)[C@H](Cc1c[nH]cn1)NC(=O)[C@H](CCCNC(=N)N)NC(=O)[C@H](CC(C)C)NC(=O)[C@H](Cc1ccccc1)NC(=O)[C@H](CCC(=O)O)NC(=O)[C@H](C)NC(=O)[C@H](CC(C)C)NC(=O)[C@H](CCCNC(=N)N)NC(=O)[C@H](CCC(N)=O)NC(=O)[C@@H](NC(=O)[C@H](C)NC(=O)[C@@H]1CSSC[C@H](NC(=O)[C@@H](N)CCCCNC(=O)CC[C@H](NC(=O)CCCCCCCCCCCCCCCCCCC(=O)O)C(=O)O)C(=O)N[C@@H](CC(N)=O)C(=O)N[C@@H]([C@@H](C)O)C(=O)N[C@@H](C)C(=O)N[C@@H]([C@@H](C)O)C(=O)N1)[C@@H](C)O)C(=O)N1CCC[C@H]1C(=O)N[C@@H](CO)C(=O)N[C@@H](CO)C(=O)N[C@H](C(=O)N[C@@H](CC(N)=O)C(=O)N[C@H](C(=O)NCC(=O)N1CCC[C@H]1C(=O)N[C@@H](Cc1c[nH]cn1)C(=O)N[C@H](C(=O)N[C@@H](Cc1ccc(O)cc1)C(N)=O)[C@@H](C)O)C(C)C)[C@@H](C)O [Example 118] (H-K([γGlu-C20 diacid])CNTATCATQRLAEFLRHSSPNFGAIPSSTNVGPHTY-NH2; disulfide 2-7) | – | 21.2 | 21.2 | 21.2 | 21.2 | 21.2 | 21.2 | 21.2 | 8.27 | 14.4 | 14.4 | – | 14.4 | – |
| CC[C@H](C)[C@H](NC(=O)[C@H](C)NC(=O)CNC(=O)[C@H](Cc1ccccc1)NC(=O)[C@H](CC(N)=O)NC(=O)[C@@H]1CCCN1C(=O)[C@H](CO)NC(=O)[C@H](CO)NC(=O)[C@H](Cc1c[nH]cn1)NC(=O)[C@H](CCCNC(=N)N)NC(=O)[C@H](CC(C)C)NC(=O)[C@H](Cc1ccccc1)NC(=O)[C@H](CCC(=O)O)NC(=O)[C@H](C)NC(=O)[C@H](CC(C)C)NC(=O)[C@H](CCCNC(=N)N)NC(=O)[C@H](CCC(N)=O)NC(=O)[C@@H](NC(=O)[C@H](C)NC(=O)[C@@H]1CSSC[C@H](NC(=O)[C@@H](N)CCCCNC(=O)CC[C@H](NC(=O)CC[C@H](NC(=O)CCCCCCCCCCCCCCCCCCC(=O)O)C(=O)O)C(=O)O)C(=O)N[C@@H](CC(N)=O)C(=O)N[C@@H]([C@@H](C)O)C(=O)N[C@@H](C)C(=O)N[C@@H]([C@@H](C)O)C(=O)N1)[C@@H](C)O)C(=O)N1CCC[C@H]1C(=O)N[C@@H](CO)C(=O)N[C@@H](CO)C(=O)N[C@H](C(=O)N[C@@H](CC(N)=O)C(=O)N[C@H](C(=O)NCC(=O)N1CCC[C@H]1C(=O)N[C@@H](CCC(=O)O)C(=O)N[C@H](C(=O)N1CCC[C@H]1C(N)=O)[C@@H](C)O)C(C)C)[C@@H](C)O [Example 125] (H-K([γGlu-γGlu-C20 diacid])CNTATCATQRLAEFLRHSSPNFGAIPSSTNVGPETP-NH2; disulfide 2-7 (inferred); N-terminus assumed) | – | 0.4 | – | – | – | 0.4 | 0.4 | – | 8.79 | 0.8 | 0.8 | – | 0.8 | 0.8 |
